Source: ChEMBL document CHEMBL3044641, “Design and synthesis of some novel 3-[5-(4-substituted) phenyl-1,3,4-oxadiazole-2yl]-2-phenylquinazoline-4(3H)-ones as possible anticonvulsant agent” (Med Chem Res, 2011)
Active and inactive are the calls of the source. No cut-off for these calls is given here.

Assays:
Mus musculus [1] = experiment: Neurotoxicity in ip dosed Mus musculus albino (mouse) assessed as minimal motor impairment after 0.5 hr by rotarod test; format: toxicity, organism-based; conditions: in vivo
Mus musculus [2] = experiment: Neurotoxicity in ip dosed Mus musculus albino (mouse) assessed as minimal motor impairment after 4 hr by rotarod test; format: toxicity, organism-based; conditions: in vivo
Mus musculus [3] = experiment: Anticonvulsant activity in ip dosed Mus musculus albino (mouse) assessed as protection against subcutaneous metrazole-induced seizure after 0.5 hr; format: functional; conditions: read-out: MED
Mus musculus [4] = experiment: Anticonvulsant activity in ip dosed Mus musculus albino (mouse) assessed as protection against maximal electroshock-induced seizure after 0.5 hr; format: functional; conditions: read-out: MED
Mus musculus [5] = experiment: Anticonvulsant activity in ip dosed Mus musculus albino (mouse) assessed as protection against maximal electroshock-induced seizure after 4 hr; format: functional; conditions: read-out: MED
Mus musculus [6] = experiment: Anticonvulsant activity in ip dosed Mus musculus albino (mouse) assessed as protection against subcutaneous metrazole-induced seizure after 4 hr; format: functional; conditions: read-out: MED
Mus musculus [7] = experiment: Anticonvulsant activity in Mus musculus albino (mouse) assessed as protection against subcutaneous metrazole-induced seizure at 300 mg/kg, ip after 4 hr; format: functional, organism-based; parameters: dose 300 mg/kg
Mus musculus [8] = experiment: Anticonvulsant activity in Mus musculus albino (mouse) assessed as protection against maximal electroshock-induced seizure at 300 mg/kg, ip after 0.5 hr; format: functional, organism-based; parameters: dose 300 mg/kg
Mus musculus [9] = experiment: Anticonvulsant activity in Mus musculus albino (mouse) assessed as protection against maximal electroshock-induced seizure at 300 mg/kg, ip after 4 hr; format: functional, organism-based; parameters: dose 300 mg/kg
Mus musculus [10] = experiment: Neurotoxicity in Mus musculus albino (mouse) assessed as minimal motor impairment at 300 mg/kg, ip after 4 hr by rotarod test; format: toxicity, organism-based; parameters: dose 300 mg/kg, route intraperitoneal; conditions: in vivo
Mus musculus [11] = experiment: Anticonvulsant activity in Mus musculus albino (mouse) assessed as protection against subcutaneous metrazole-induced seizure at 300 mg/kg, ip after 0.5 hr; format: functional, organism-based; parameters: dose 300 mg/kg
Mus musculus [12] = experiment: Neurotoxicity in Mus musculus albino (mouse) assessed as minimal motor impairment at 300 mg/kg, ip after 0.5 hr by rotarod test; format: toxicity, organism-based; parameters: dose 300 mg/kg, route intraperitoneal; conditions: in vivo

Structure (SMILES) | Activity (Mus musculus [1]) [mg/kg] | Activity (Mus musculus [2]) [mg/kg] | minimal effective dose (Mus musculus [3]) [mg/kg] | minimal effective dose (Mus musculus [4]) [mg/kg] | minimal effective dose (Mus musculus [5]) [mg/kg] | minimal effective dose (Mus musculus [6]) [mg/kg] | Activity (Mus musculus [7]) | Activity (Mus musculus [8]) | Activity (Mus musculus [9]) | Activity (Mus musculus [10]) | Activity (Mus musculus [11]) | Activity (Mus musculus [12])
NC(=O)N1c2ccccc2C=Cc2ccccc21 [CARBAMAZEPINE] | 100 | 300 | 100 | 30 | 100 | 300 |  |  |  |  |  | 
O=c1c2ccccc2nc(-c2ccccc2)n1-c1nnc(-c2ccc(Cl)cc2)o1 |  |  |  |  |  |  | inactive | inactive | inactive | Non-toxic | inactive | Non-toxic
O=c1c2ccccc2nc(-c2ccccc2)n1-c1nnc(-c2ccc(F)cc2)o1 | 300 |  |  | 300 | 300 |  | inactive |  |  | Non-toxic | inactive | 
O=c1c2ccccc2nc(-c2ccccc2)n1-c1nnc(-c2ccc([N+](=O)[O-])cc2)o1 | 300 | 300 |  |  |  |  | inactive | inactive | inactive |  | inactive | 
O=c1c2ccccc2nc(-c2ccccc2)n1-c1nnc(-c2ccccc2)o1 |  |  |  | 300 |  |  | inactive |  | inactive | Non-toxic | inactive | Non-toxic
Cc1ccc(-c2nnc(-n3c(-c4ccccc4)nc4ccccc4c3=O)o2)cc1 |  | 300 |  |  |  |  | inactive | inactive | inactive |  | inactive | Non-toxic
O=C1NC(=O)C(c2ccccc2)(c2ccccc2)N1 [PHENYTOIN] | 100 | 100 |  | 30 | 30 |  | inactive |  |  |  | inactive | 
COc1ccc(-c2nnc(-n3c(-c4ccccc4)nc4ccccc4c3=O)o2)cc1 | 300 | 300 |  |  |  |  | inactive | inactive | inactive |  | inactive | 
